Source: patent US7557132B2, “Compounds useful as pesticides” (Dow AgroSciences LLC, priority 2002, dated 2009)

CC(/C(=C/[N+](=O)[O-])Nc1ccccc1)c1ccc(Cl)nc1 (stereo not shown) [Compound 45, N-{(Z)-1-[1-(6-chloro-3-pyridinyl)ethyl]-2-nitroethenyl}aniline]
melting point: 93 to 95 °C
